Measured values reported in publication PMC9785492 (Viruses, 2022).

Tested on: A/PR/8/34 with NA-H274Y
Format: cell-based, Influenza A virus (H1N1)

COC(=O)C1=C(C)NC(C)=C(C(=O)OCC(C)C)C1c1ccccc1[N+](=O)[O-] (stereo not shown) [Nisoldipine]
IC50: 5.94 ± 0.55 µM
